Assays:
P388 tumor cells = test system: P388 tumor cells; design: species or system DBA/BALB(F1) male mice; details: mouse, in vivo, ip, 5 mg/kg
[1] = test system: erythroleukemia tumor cells; design: species or system C57BL male mice; details: mouse, in vivo
[2] = test system: vesicular stomatitis virus (VSV)

“Recombinant human interferon-alpha2b [IFN]” was tested. Which Tumor mass (P388 tumor cells) did it give?
Its Tumor mass is 4800 ± 500 mg.

And the Tumor mass [1]?
The Tumor mass was 354 ± 16 mg.

Disodium succinate hexahydrate was tested. Which “protection of cells against virus-induced cytopathology” value [2] did it give?
The value was “no effect”.

From patent publication US20030147850A1 (priority 2002, published 2003)
